For 18 molecules, inhibition results are on record in article PMC9572541, “Design, Synthesis and Biological Evaluation of Novel and Potent Protein Arginine Methyltransferases 5 Inhibitors for Cancer Therapy” (Molecules, 2022).

The term inhibition denotes the drop in the measured response relative to a control, in per cent.

T1 sequence (O14744 whole entry): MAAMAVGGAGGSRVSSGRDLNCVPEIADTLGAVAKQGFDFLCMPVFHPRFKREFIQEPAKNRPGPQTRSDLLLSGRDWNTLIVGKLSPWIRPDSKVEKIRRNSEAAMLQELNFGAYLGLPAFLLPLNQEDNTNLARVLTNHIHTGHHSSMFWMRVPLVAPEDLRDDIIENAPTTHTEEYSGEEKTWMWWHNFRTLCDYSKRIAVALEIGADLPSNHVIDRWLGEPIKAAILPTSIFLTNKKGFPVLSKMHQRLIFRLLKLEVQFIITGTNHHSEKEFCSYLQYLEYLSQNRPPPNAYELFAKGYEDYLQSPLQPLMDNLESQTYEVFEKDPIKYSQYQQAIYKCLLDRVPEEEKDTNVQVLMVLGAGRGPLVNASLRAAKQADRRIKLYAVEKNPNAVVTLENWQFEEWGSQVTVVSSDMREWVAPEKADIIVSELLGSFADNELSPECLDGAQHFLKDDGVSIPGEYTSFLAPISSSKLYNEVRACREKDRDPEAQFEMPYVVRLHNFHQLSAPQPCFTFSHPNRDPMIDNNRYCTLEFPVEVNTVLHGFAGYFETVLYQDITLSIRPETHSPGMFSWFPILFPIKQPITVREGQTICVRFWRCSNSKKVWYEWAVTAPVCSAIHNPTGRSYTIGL
T1 sequence (Q9BQA1 whole entry partner): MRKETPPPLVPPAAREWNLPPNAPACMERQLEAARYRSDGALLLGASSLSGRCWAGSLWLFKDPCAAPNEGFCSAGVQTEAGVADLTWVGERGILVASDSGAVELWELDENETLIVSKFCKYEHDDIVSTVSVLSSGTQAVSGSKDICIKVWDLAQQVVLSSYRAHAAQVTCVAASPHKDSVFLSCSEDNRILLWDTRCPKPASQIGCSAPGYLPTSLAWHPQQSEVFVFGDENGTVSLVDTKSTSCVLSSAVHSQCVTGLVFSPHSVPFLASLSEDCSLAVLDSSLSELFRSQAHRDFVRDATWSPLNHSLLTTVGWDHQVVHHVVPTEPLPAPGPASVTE

The assay concerns the target T1, PRMT5 (Homo sapiens, UniProt O14744).
T1 construct: The final concentrations of PRMT5 enzyme: 2.5 nm/L
The assay is described as follows: PRMT5 enzymatic activity inhibition assay (radioactive methylation, 3H-SAM to H4R3 peptide). As to conditions: 100 nM compound; read-out: Inhibition Rate% @100 nM. The class given is biochemical. As to the method:
The PRMT5 enzymatic activity assay was conducted by Chempartner Life science. The final concentrations of PRMT5 enzyme: 2.5 nm/L; ^3H-SAM: 0.3 μM/L; histone peptide (H4R3S1ac): 0.3 μM/L. The protocol of radioactive methylation assay was as follows: (1) Prepare 1× assay buffer (modified Tris Buffer). (2) Transfer compounds to assay plate using Echo in 100% DMSO. DMSO’s final fraction is 1%. (3) Prepare enzyme and ^3H-SAM Mix solution in 1× assay buffer. (4) Prepare substrate (peptide sequence Ac-[…]-K(Biotin)) solution in 1× assay buffer. (5) Transfer 15 μL of enzyme and ^3H-SAM solution to assay plate. (6) Incubate at room temperature for 60 min. (7) Add 10 μL of substrate solution to each well to start the reaction, and for low control transfer 10 μL of 1× assay buffer. (8) Incubate at room temperature for 120 min. (9) Add cold SAM in 1× assay buffer to make the stop mix. (10) Stop reaction with addition of 5 µL per well of stop solution. (11) Transfer 25 µL of volume per well to Flash plate from assay plate. (12) Incubate for 1 h minimum at room temperature.
(13) Read plate on Micro beta. (14) Data process—get the data in Excel to obtain inhibition values using Equation (1).Inhibitory rate% = (Max-Signal)/ (Max-Min) × 100(1)
Fit the data in XL-Fit to obtain IC50 values using Equation (2): Y = Bottom + (Top-Bottom)/(1 + (IC50/X) […]) Y is% inhibition and X is compound concentration(2)
With `Cn1c2ccccc2c2cc(C(=O)NC[C@H](O)CN3CCc4ccccc4C3)ccc21` [Compound 6, (S)-N-(3-(3,4-dihydroisoquinolin-2(1H)-yl)-2-hydroxypropyl)-9-methyl-9H-carbazole-3-carboxamide], the inhibition at 0.1 µM was determined as 63 ± 3.2%.

As to `CC(C)n1c2c(c3cc(C(=O)NC[C@H](O)CN4CCc5ccccc5C4)ccc31)CCCC2` [Compound 16, (S)-N-(3-(3,4-dihydroisoquinolin-2(1H)-yl)-2-hydroxypropyl)-9-isopropyl-2,3,4,9-tetrahydro-1H-carbazole-6-carboxamide], the inhibition at 0.1 µM is 70 ± 0.2%.

`CN1CCc2[nH]c3ccc(C(=O)NC[C@H](O)CN4CCc5ccccc5C4)cc3c2C1` [Compound 21, (S)-N-(3-(3,4-dihydroisoquinolin-2(1H)-yl)-2-hydroxypropyl)-2-methyl-2,3,4,5-tetrahydro-1H-pyrido[4,3-b]indole-8-carboxamide]: the inhibition at 0.1 µM was 48 ± 1.2%.

On to `O=C(NC[C@H](O)CN1CCc2ccccc2C1)c1ccc2c(c1)c1c(n2CC2CC2)CCCC1` [Compound 18, (S)-9-(cyclopropylmethyl)-N-(3-(3,4-dihydroisoquinolin-2(1H)-yl)-2-hydroxypropyl)-2,3,4,9-tetrahydro-1H-carbazole-6-carboxamide], for which the inhibition at 0.1 µM amounted to 60 ± 4.6%.

Consider `COc1ccc2[nH]c3ccc(C(=O)NC[C@H](O)CN4CCc5ccccc5C4)cc3c2c1` [Compound 4, (S)-N-(3-(3,4-dihydroisoquinolin-2(1H)-yl)-2-hydroxypropyl)-6-methoxy-9H-carbazole-3-carboxamide], for which the inhibition at 0.1 µM was 64 ± 1.5%.

As to `O=C(NC[C@H](O)CN1CCc2ccccc2C1)c1ccc2[nH]c3ccc(Cl)cc3c2c1` [Compound 5, (S)-6-chloro-N-(3-(3,4-dihydroisoquinolin-2(1H)-yl)-2-hydroxypropyl)-9H-carbazole-3-carboxamide], the inhibition at 0.1 µM worked out at 69 ± 7%.

In the case of `CC(C)Cn1c2c(c3cc(C(=O)NC[C@H](O)CN4CCc5ccccc5C4)ccc31)CCCC2` [Compound 17, (S)-N-(3-(3,4-dihydroisoquinolin-2(1H)-yl)-2-hydroxypropyl)-9-isobutyl-2,3,4,9-tetrahydro-1H-carbazole-6-carboxamide], the inhibition at 0.1 µM was 75 ± 1.6%.

On to `Cc1ccc2[nH]c3ccc(C(=O)NC[C@H](O)CN4CCc5ccccc5C4)cc3c2c1` [Compound 2, (S)-N-(3-(3,4-dihydroisoquinolin-2(1H)-yl)-2-hydroxypropyl)-6-methyl-9H-carbazole-3-carboxamide], for which the inhibition at 0.1 µM is 59 ± 0.4%.

As to `CC1CCc2[nH]c3ccc(C(=O)NC[C@H](O)CN4CCc5ccccc5C4)cc3c2C1` (stereo partly drawn) [Compound 11, N-((S)-3-(3,4-dihydroisoquinolin-2(1H)-yl)-2-hydroxypropyl)-3-methyl-2,3,4,9-tetrahydro-1H-carbazole-6-carboxamide], the inhibition at 0.1 µM turned out to be 67 ± 3.5%.

Regarding `CCN1CCc2[nH]c3ccc(C(=O)NC[C@H](O)CN4CCc5ccccc5C4)cc3c2C1` [Compound 22, (S)-N-(3-(3,4-dihydroisoquinolin-2(1H)-yl)-2-hydroxypropyl)-2-ethyl-2,3,4,5-tetrahydro-1H-pyrido[4,3-b]indole-8-carboxamide], the inhibition at 0.1 µM amounted to 64 ± 10.7%.

Turning to `CCC1CCc2[nH]c3ccc(C(=O)NC[C@H](O)CN4CCc5ccccc5C4)cc3c2C1` (stereo partly drawn) [Compound 12, N-((S)-3-(3,4-dihydroisoquinolin-2(1H)-yl)-2-hydroxypropyl)-3-ethyl-2,3,4,9-tetrahydro-1H-carbazole-6-carboxamide], the inhibition at 0.1 µM amounted to 58 ± 3.7%.

In the case of `CC(C)CN1CCc2[nH]c3ccc(C(=O)NC[C@H](O)CN4CCc5ccccc5C4)cc3c2C1` [Compound 26, (S)-N-(3-(3,4-dihydroisoquinolin-2(1H)-yl)-2-hydroxypropyl)-2-isobutyl-2,3,4,5-tetrahydro-1H-pyrido[4,3-b]indole-8-carboxamide], the inhibition at 0.1 µM is 59 ± 1.4%.

Take `O=C(NC[C@H](O)CN1CCc2ccccc2C1)c1ccc2[nH]c3ccc(F)cc3c2c1` [Compound 3, (S)-N-(3-(3,4-dihydroisoquinolin-2(1H)-yl)-2-hydroxypropyl)-6-fluoro-9H-carbazole-3-carboxamide]: the inhibition at 0.1 µM stood at 65 ± 0.2%.

`CC(C)N1CCc2[nH]c3ccc(C(=O)NC[C@H](O)CN4CCc5ccccc5C4)cc3c2C1` [Compound 25, (S)-N-(3-(3,4-dihydroisoquinolin-2(1H)-yl)-2-hydroxypropyl)-2-isopropyl-2,3,4,5-tetrahydro-1H-pyrido[4,3-b]indole-8-carboxamide]: the inhibition at 0.1 µM worked out at 51 ± 4.2%.

In the case of `O=C(NC[C@H](O)CN1CCc2ccccc2C1)c1ccc2[nH]c3c(c2c1)CCC3` [Compound 8, (S)-N-(3-(3,4-dihydroisoquinolin-2(1H)-yl)-2-hydroxypropyl)-1,2,3,4-tetrahydrocyclopenta[b]indole-7-carboxamide], the inhibition at 0.1 µM came to 74 ± 2%.

Consider `CCCN1CCc2[nH]c3ccc(C(=O)NC[C@H](O)CN4CCc5ccccc5C4)cc3c2C1` [Compound 24, (S)-N-(3-(3,4-dihydroisoquinolin-2(1H)-yl)-2-hydroxypropyl)-2-propyl-2,3,4,5-tetrahydro-1H-pyrido[4,3-b]indole-8-carboxamide], for which the inhibition at 0.1 µM is 63 ± 4.4%.

Consider `O=C(NC[C@H](O)CN1CCc2ccccc2C1)c1ccc2[nH]c3c(c2c1)CCCCC3` [Compound 9, (S)-N-(3-(3,4-dihydroisoquinolin-2(1H)-yl)-2-hydroxypropyl)-5,6,7,8,9,10-hexahydrocyclohepta[b]indole-2-carboxamide], for which the inhibition at 0.1 µM was 73 ± 4.1%.

Take `O=C(NC[C@H](O)CN1CCc2ccccc2C1)c1ccc2[nH]c3c(c2c1)CN(C1CC1)CC3` [Compound 23, (S)-2-cyclopropyl-N-(3-(3,4-dihydroisoquinolin-2(1H)-yl)-2-hydroxypropyl)-2,3,4,5-tetrahydro-1H-pyrido[4,3-b]indole-8-carboxamide]: the inhibition at 0.1 µM amounted to 52 ± 4.8%.
